According to patent US20060069132A1, “Azolecarboxamide herbicides” (priority 2004, published 2006):

Legend:
barnyardgrass = test: Test C flooded paddy test; type: in vivo, Echinochloa crus-galli; conditions: for Plant response rating, Barnyardgrass: 500 g ai/ha, visual rating after 12 to 14 days
In short: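 Weeds and wheat were sprayed after emergence, at a height of 2 to 18 cm (1–4 leaves), and paddy barnyardgrass was flooded and treated at two leaves. Assessment took place 12–14 days later in the greenhouse on a 0-to-100 visual control scale. A dash means no result was obtained.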

soybean = test: Test C pre-/postemergence herbicide test; type: in vivo, Glycine max; conditions: for Soybean plant response rating: 500 g ai/ha
Source text: (§1) Seeds of plant species selected from bermudagrass (Cynodon dactylon (L.) Pers.), Surinam grass (Urochloa decumbens (Staph) R. D. Webster, previously named Brachiaria decumbens Stapf), cocklebur (Xanthium strumarium L.), corn (Zea mays L.), large crabgrass (Digitaria sanguinalis (L.) Scop.), woolly cupgrass (Eriochloa villosa (Thunb.) Kunth), giant foxtail (Setaria faberi Herrm.), goosegrass (Eleusine indica (L.) Gaertn.), johnsongrass (Sorghum halepense (L.) Pers.), kochia (Kochia scoparia (L.) Schrad.), lambsquarters (Chenopodium album L.), morningglory (Ipomoea coccinea L.), eastern black nightshade (Solanum ptycanthum Dunal), yellow nutsedge (Cyperus esculentus L.), pigweed (Amaranthus retroflexus L.), common ragweed (Ambrosia elatior L.), soybean (Glycine max (L.) Merr.), common (oilseed) sunflower (Helianthus annuus L.) and velvetleaf (Abutilon theophrasti Medik.) were planted and treated preemergence with test chemicals formulated in a non-phytotoxic solvent mixture which included a surfactant.
(§2) At the same time, plants selected from these crop and weed species and also winter barley (Hordeum vulgare L.), blackgrass (Alopecurus myosuroides Huds.), canarygrass (Phalaris minor Retz.), chickweed (Stellaria media (L.) Vill.), downy bromegrass (Bromus tectorum L.), green foxtail (Setaria viridis (L.) Beauv.), Italian ryegrass (Lolium multiflorum Lam.), wheat (Triticum aestivum L.), wild oat (Avenafatua L.) and windgrass (Apera spica-venti (L.) Beauv.) were treated with postemergence applications of some of the test chemicals formulated in the same manner. Plants ranged in height from 2 to 18 cm (1- to 4-leaf stage) for postemergence treatments. Plant species in the flooded paddy test consisted of rice (Oryza sativa), smallflower umbrella sedge (Cyperus difformis L.), ducksalad (Heteranthera limosa (Sw.) Willd.) and barnyardgrass (Echinochloa crus-galli (L.) Beauv.) grown to the 2-leaf stage for testing. Treated plants and controls were maintained in a greenhouse for 12 to 14 days, after which time all species were compared to controls and visually evaluated. Plant response ratings, summarized in Table C, are based on a scale of 0 to 100 where 0 is no effect and 100 is complete control. A dash (-) response means no test result.

yellow nutsedge = test: Test C pre-/postemergence herbicide test; type: in vivo, Cyperus esculentus; conditions: for Nutsedge, Yellow plant response rating: 500 g ai/ha
Source text: as §1, §2

velvetleaf = test: Test C pre-/postemergence herbicide test; type: in vivo, Abutilon theophrasti; conditions: for Velvetleaf plant response rating: 500 g ai/ha
Source text: as §1, §2

bermudagrass = test: Test C pre-/postemergence herbicide test; type: in vivo, Cynodon dactylon
Source text: as §1, §2

pigweed = test: Test C pre-/postemergence herbicide test; type: in vivo, Amaranthus retroflexus; conditions: for Pigweed plant response rating: 500 g ai/ha
Source text: as §1, §2

rice = test: Test B pre-/postemergence herbicide test; type: in vivo, Oryza sativa; conditions: preemergence, 125 g ai/ha; 0 to 100 scale, 0 is no effect, 100 is complete control
In short: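 Greenhouse pot assay with simultaneous preemergence (treated seed) and postemergence (2–18 cm seedlings) applications of surfactant-containing, non-phytotoxic solvent formulations. Response scored visually 13–15 days later on a 0–100 scale, 100 meaning complete control.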

giant foxtail = test: Test C pre-/postemergence herbicide test; type: in vivo, Setaria faberi; conditions: for Foxtail, Giant plant response rating: 500 g ai/ha
Source text: as §1, §2

[1] = test system: smallflower umbrella sedge; test: Test C flooded paddy test; type: in vivo, Cyperus difformis; conditions: for Plant response rating, Sedge, Umbrella: 500 g ai/ha, visual rating after 12 to 14 days
cocklebur = test: Test C pre-/postemergence herbicide test; type: in vivo, Xanthium strumarium; conditions: for Cocklebur plant response rating: 500 g ai/ha
Source text: as §1, §2

morningglory = test: Test C pre-/postemergence herbicide test; type: in vivo, Ipomoea coccinea; design: key to Plant response rating, Morningglory: 0 = no effect, 100 = complete control; conditions: for Morningglory plant response rating: 500 g ai/ha
Source text: as §1, §2

[2] = 62 g ai/ha, scale 0 to 100 (0 no effect, 100 complete control)
[3] = 125 g ai/ha, scale of 0 to 100, 0 is no effect, 100 is complete control
[4] = 250 g ai/ha, scale of 0 to 100, 0 is no effect, 100 is complete control
[5] = scale 0 to 100 (0 no effect, 100 complete control)
[6] = Postemergence, 250 g ai/ha, scale 0 to 100, 0 no effect, 100 complete control
[7] = postemergence, 125 g ai/ha, scale 0 to 100
[8] = postemergence, 62 g ai/ha, scale 0 to 100
[9] = postemergence, 31 g ai/ha, scale 0 to 100
[10] = Postemergence, 500 g ai/ha, scale 0 to 100

SMILES	Plant response rating, Soybean (soybean; [6])	Plant response rating, Soybean (soybean; [7])	Plant response rating, Soybean (soybean; [8])	Plant response rating, Nutsedge, Yellow (yellow nutsedge; [6])	Plant response rating, Nutsedge, Yellow (yellow nutsedge; [7])	Plant response rating, Nutsedge, Yellow (yellow nutsedge; [8])	Plant response rating, Velvetleaf (velvetleaf; [6])	Plant response rating, Velvetleaf (velvetleaf; [7])	Plant response rating, Velvetleaf (velvetleaf; [8])	Plant response rating, Pigweed (pigweed; [6])	Plant response rating, Pigweed (pigweed; [7])	Plant response rating, Pigweed (pigweed; [8])	Plant response rating, Foxtail, Giant (giant foxtail; [6])	Plant response rating, Foxtail, Giant (giant foxtail; [7])	Plant response rating, Foxtail, Giant (giant foxtail; [8])	Plant response rating, Cocklebur (cocklebur; [6])	Plant response rating, Cocklebur (cocklebur; [7])	Plant response rating, Cocklebur (cocklebur; [8])	Plant response rating, Morningglory (morningglory; [6])	Plant response rating, Morningglory (morningglory; [7])	other results
CCn1nc(C(C)(C)C)cc1C(=O)Nc1cccc(C(=O)OC)c1 [Compound 81]	30	30	10	0	0	0	60	55	55	40	10	5	20	10	10	60	55	55	10	10	Barnyardgrass plant response rating (barnyardgrass; [2]): 0; Barnyardgrass plant response rating (barnyardgrass; [3]): 0; Barnyardgrass plant response rating (barnyardgrass; [4]): 0; Plant response rating, Barnyardgrass (barnyardgrass; [5]): 30; Bermudagrass plant response rating (bermudagrass; Postemergence, 250 g ai/ha, scale 0 to 100): 20; Plant response rating, Bermudagrass (bermudagrass; [7]): 0; Plant response rating, Bermudagrass (bermudagrass; [9]): 0; Plant response rating, Bermudagrass (bermudagrass; [8]): 0; Plant response rating, Rice (rice): 0; Sedge, Umbrella plant response rating [1, 2]: 70; Sedge, Umbrella plant response rating [1, 3]: 70; Sedge, Umbrella plant response rating [1, 4]: 80; Plant response rating, Sedge, Umbrella [1, 5]: 80; Plant response rating, Cocklebur (cocklebur; [9]): 50; Plant response rating, Morningglory (morningglory; [8]): 10
C#CCOC(=O)c1cccc(NC(=O)c2cc(C(C)(C)C)nn2CC)c1 [Compound 84]	20	0	0	0	0	0	0	0	0	100	100	100	0	0	0	0	0	0	0	0	Soybean plant response rating (soybean; Postemergence, scale 0 to 100): 20; Nutsedge, Yellow plant response rating (yellow nutsedge; Postemergence, scale 0 to 100): 0; Velvetleaf plant response rating (velvetleaf; Postemergence, scale 0 to 100): 0; Plant response rating, Bermudagrass (bermudagrass; [6]): 0; Pigweed plant response rating (pigweed; Postemergence, scale 0 to 100): 100; Plant response rating, Rice (rice): 0; Foxtail, Giant plant response rating (giant foxtail; Postemergence, scale 0 to 100): 0; Cocklebur plant response rating (cocklebur; Postemergence, scale 0 to 100): 0; Morningglory plant response rating (morningglory; Postemergence, scale 0 to 100): 0; Plant response rating, Morningglory (morningglory; [8]): 0
C=CCOC(=O)c1cccc(NC(=O)c2cc(C(C)(C)C)nn2CC)c1 [Compound 85]	80	60	55	20	20	10	80	75	60	100	100	100	50	20	10	100	80	20	60	40	Soybean plant response rating (soybean; Postemergence, scale 0 to 100): 95; Nutsedge, Yellow plant response rating (yellow nutsedge; Postemergence, scale 0 to 100): 40; Velvetleaf plant response rating (velvetleaf; Postemergence, scale 0 to 100): 85; Bermudagrass plant response rating (bermudagrass; [10]): 70; Plant response rating, Bermudagrass (bermudagrass; [7]): 65; Plant response rating, Bermudagrass (bermudagrass; [8]): 0; Pigweed plant response rating (pigweed; Postemergence, scale 0 to 100): 100; Plant response rating, Rice (rice): 0; Foxtail, Giant plant response rating (giant foxtail; Postemergence, scale 0 to 100): 70; Cocklebur plant response rating (cocklebur; Postemergence, scale 0 to 100): 100; Morningglory plant response rating (morningglory; Postemergence, scale 0 to 100): 80; Plant response rating, Morningglory (morningglory; [8]): 10
CC(=NO)c1cccc(NC(=O)c2cc(C(C)(C)C)nn2CC(F)(F)F)c1 [Compound 112]	50	0	0	20	0	0	80	0	0	100	60	10	50	50	30	60	30	0	70	20	Barnyardgrass plant response rating (barnyardgrass; [2]): 0; Barnyardgrass plant response rating (barnyardgrass; [3]): 0; Barnyardgrass plant response rating (barnyardgrass; [4]): 10; Plant response rating, Barnyardgrass (barnyardgrass; [5]): 30; Soybean plant response rating (soybean; Postemergence, scale 0 to 100): 60; Nutsedge, Yellow plant response rating (yellow nutsedge; Postemergence, scale 0 to 100): 20; Velvetleaf plant response rating (velvetleaf; Postemergence, scale 0 to 100): 90; Bermudagrass plant response rating (bermudagrass; [10]): 30; Plant response rating, Bermudagrass (bermudagrass; [6]): 30; Plant response rating, Bermudagrass (bermudagrass; [7]): 0; Plant response rating, Bermudagrass (bermudagrass; [8]): 0; Pigweed plant response rating (pigweed; Postemergence, scale 0 to 100): 100; Foxtail, Giant plant response rating (giant foxtail; Postemergence, scale 0 to 100): 50; Sedge, Umbrella plant response rating [1, 2]: 0; Sedge, Umbrella plant response rating [1, 3]: 0; Sedge, Umbrella plant response rating [1, 4]: 25; Plant response rating, Sedge, Umbrella [1, 5]: 50; Cocklebur plant response rating (cocklebur; Postemergence, scale 0 to 100): 70; Morningglory plant response rating (morningglory; Postemergence, scale 0 to 100): 100; Plant response rating, Morningglory (morningglory; [8]): 0
